For series [1], the system named is Brain. As to the kind of experiment: Drug concentration in Sprague-Dawley rat brain assessed as 6-(4-chlorophenyl)-3-(4-(2-hydroxy-2-methylpropoxy)-3-methoxyphenyl)pyrrolo[1,2-f][1,2,4]triazin-4(3H)-one level at 10 mg/kg, po qd at 20 hrs. It is filed as ADME, organism-based. The conditions noted are these: in vivo, read-out: Drug uptake.
Series [2] has as its system Brain. As to the kind of experiment: Drug concentration in Sprague-Dawley rat brain assessed as 6-(4-chlorophenyl)-3-(4-(2-hydroxy-2-methylpropoxy)-3-methoxyphenyl)pyrrolo[1,2-f][1,2,4]triazin-4(3H)-one level at 10 mg/kg, po qd at 8 hrs. In kind it is ADME, organism-based. The conditions noted are these: in vivo.
Series [3] relates to Brain. The series can be described thus: Drug concentration in Sprague-Dawley rat brain assessed as 6-(4-chlorophenyl)-3-(4-(2-hydroxy-2-methylpropoxy)-3-methoxyphenyl)pyrrolo[1,2-f][1,2,4]triazin-4(3H)-one level at 3 mg/kg, po qd at 20 hrs. It is filed as ADME, organism-based. Particulars: in vivo, read-out: Drug uptake.
In series [4] the test system is Liver. The series can be described thus: Prodrug conversion in Sprague-Dawley rat liver assessed as 6-(4-chlorophenyl)-3-(4-(2,3-dihydroxypropoxy)-3-methoxyphenyl)pyrrolo[1,2-f][1,2,4]triazin-4(3H)-one formation at 10 mg/kg, po qd at 20 hrs post dose. In kind it is ADME, organism-based. Particulars: in vivo.
The test system of series [5] is Brain. The series can be described thus: Free drug level in Sprague-Dawley rat brain assessed as 6-(4-chlorophenyl)-3-(4-(2-hydroxy-2-methylpropoxy)-3-methoxyphenyl)pyrrolo[1,2-f][1,2,4]triazin-4(3H)-one level at 10 mg/kg, po qd at 20 hrs. It is filed as ADME, organism-based. Particulars: in vivo.
Series [6] is described as follows: Ratio of free drug level in brain of Sprague-Dawley rat assessed as 6-(4-chlorophenyl)-3-(4-(2-hydroxy-2-methylpropoxy)-3-methoxyphenyl)pyrrolo[1,2-f][1,2,4]triazin-4(3H)-one level at 30 mg/kg, po to Ki for rat MCHR1. In kind it is ADME, organism-based. Particulars: in vivo.
In series [7] the test system is Brain. The series can be described thus: Free drug level in Sprague-Dawley rat brain assessed as 6-(4-chlorophenyl)-3-(4-(2-hydroxy-2-methylpropoxy)-3-methoxyphenyl)pyrrolo[1,2-f][1,2,4]triazin-4(3H)-one level at 30 mg/kg, po qd at 20 hrs. It is filed as ADME, organism-based. The conditions noted are these: in vivo.
Series [8] deals with Liver. The series can be described thus: Prodrug conversion in Sprague-Dawley rat liver assessed as 3-(4-(6-(4-chlorophenyl)-4-oxopyrrolo[1,2-f][1,2,4]triazin-3(4H)-yl)-2-methoxyphenoxy)-2-hydroxypropanoic acid formation at 10 mg/kg, po qd at 20 hrs post dose. In kind it is ADME, organism-based. The conditions noted are these: in vivo.
In series [9] the test system is Rattus norvegicus. The series can be described thus: Cmax in Sprague-Dawley rat assessed as 6-(4-chlorophenyl)-3-(4-(2-hydroxy-2-methylpropoxy)-3-methoxyphenyl)pyrrolo[1,2-f][1,2,4]triazin-4(3H)-one level at 10 mg/kg, po qd at 4 hrs. In kind it is ADME, organism-based. Also noted: dose 10 mg/kg, route oral. The conditions noted are these: in vivo.
A further series has as its system Nucleic Acid. As to the kind of experiment: Ratio of drug level in Sprague-Dawley rat brain to plasma assessed as 6-(4-chlorophenyl)-3-(4-(2-hydroxy-2-methylpropoxy)-3-methoxyphenyl)pyrrolo[1,2-f][1,2,4]triazin-4(3H)-one level at 10 mg/kg, po qd. It is filed as ADME, organism-based.
A short description of series [10]: AUC (0 to 8 hrs ) in Sprague-Dawley rat at 10 mg/kg, po qd. In kind it is ADME, organism-based. Also on record: time < 8 hr, dose 10 mg/kg, route oral. Particulars: in vivo.
A short description of series [11]: Ratio of free drug level in brain of Sprague-Dawley rat assessed as 6-(4-chlorophenyl)-3-(4-(2-hydroxy-2-methylpropoxy)-3-methoxyphenyl)pyrrolo[1,2-f][1,2,4]triazin-4(3H)-one level at 3 mg/kg, po to Ki for rat MCHR1. In kind it is ADME, organism-based. The conditions noted are these: in vivo.
Series [12] has as its system Brain. As to the kind of experiment: Drug concentration in Sprague-Dawley rat brain assessed as 6-(4-chlorophenyl)-3-(4-(2-hydroxy-2-methylpropoxy)-3-methoxyphenyl)pyrrolo[1,2-f][1,2,4]triazin-4(3H)-one level at 30 mg/kg, po qd at 20 hrs. It is filed as ADME, organism-based. The conditions noted are these: in vivo, read-out: Drug uptake.
Series [13] can be described thus: Cmax in Sprague-Dawley rat at 10 mg/kg, po qd after 1.5 hrs. The conditions noted are these: in vivo. Also noted: dose 10 mg/kg, route oral. In kind it is ADME, organism-based.
Series [14] has as its system Liver. The series can be described thus: Prodrug conversion in Sprague-Dawley rat liver assessed as 6-(4-chlorophenyl)-3-(4-(2,3-dihydroxy-2-methylpropoxy)-3-methoxyphenyl)pyrrolo[1,2-f][1,2,4]triazin-4(3H)-one formation at 10 mg/kg, po qd at 20 hrs post dose. In kind it is ADME, organism-based. Particulars: in vivo.
The test system of series [15] is Rattus norvegicus. As to the kind of experiment: Antiobesity activity in Sprague-Dawley rat assessed as body weight reduction at 10 mg/kg, po qd after 4 days relative to control. In kind it is functional. The conditions noted are these: 96 h.
For series [16], the system named is Liver. The series can be described thus: Prodrug conversion in Sprague-Dawley rat liver assessed as 3-(4-(6-(4-chlorophenyl)-4-oxopyrrolo[1,2-f][1,2,4]triazin-3(4H)-yl)-2-methoxyphenoxy)-2-hydroxy-2-methylpropanoic acid formation at 10 mg/kg, po qd at 20 hrs post dose. It is filed as ADME, organism-based. Particulars: in vivo.
For series [17], the system named is Brain. As to the kind of experiment: Free drug level in Sprague-Dawley rat brain assessed as 6-(4-chlorophenyl)-3-(4-(2-hydroxy-2-methylpropoxy)-3-methoxyphenyl)pyrrolo[1,2-f][1,2,4]triazin-4(3H)-one level at 3 mg/kg, po qd at 20 hrs. In kind it is ADME, organism-based. Particulars: in vivo.
The subject of series [18] is Rattus norvegicus. The series can be described thus: Antiobesity activity in Sprague-Dawley rat assessed as body weight reduction at 3 mg/kg, po qd after 4 days relative to control. The conditions noted are these: 96 h. In kind it is functional.
Series [19] concerns Plasma. As to the kind of experiment: Fraction unbound in Sprague-Dawley rat plasma assessed as 6-(4-chlorophenyl)-3-(4-(2-hydroxy-2-methylpropoxy)-3-methoxyphenyl)pyrrolo[1,2-f][1,2,4]triazin-4(3H)-one level. It is filed as ADME, cell-free.
In series [20] the test system is Rattus norvegicus. As to the kind of experiment: Antiobesity activity in Sprague-Dawley rat assessed as body weight reduction at 30 mg/kg, po qd after 4 days relative to control. In kind it is functional. Particulars: 96 h.
The nature of series [21]: Ratio of free drug level in brain of Sprague-Dawley rat assessed as 6-(4-chlorophenyl)-3-(4-(2-hydroxy-2-methylpropoxy)-3-methoxyphenyl)pyrrolo[1,2-f][1,2,4]triazin-4(3H)-one level at 10 mg/kg, po to Ki for rat MCHR1. The conditions noted are these: in vivo. It is filed as ADME, organism-based.
The subject of series [22] is Plasma. The series can be described thus: Plasma concentration in Sprague-Dawley rat assessed as 6-(4-chlorophenyl)-3-(4-(2-hydroxy-2-methylpropoxy)-3-methoxyphenyl)pyrrolo[1,2-f][1,2,4]triazin-4(3H)-one level at 10 mg/kg, po qd at 8 hrs. In kind it is ADME, organism-based. Particulars: in vivo.
Series [23] concerns Rattus norvegicus. The series can be described thus: AUC (0 to 8 hrs ) in Sprague-Dawley rat assessed as 6-(4-chlorophenyl)-3-(4-(2-hydroxy-2-methylpropoxy)-3-methoxyphenyl)pyrrolo[1,2-f][1,2,4]triazin-4(3H)-one level at 10 mg/kg, po qd. In kind it is ADME, organism-based. Also noted: dose 10 mg/kg, time < 8 hr, route oral. The conditions noted are these: in vivo.

What is called Cmax is the peak of the concentration-time curve. The AUC is the area under the concentration-time curve, a measure of exposure. The term inhibition in vivo denotes the change of the read-out against control, counted positive when it falls.

As for `COc1cc(-n2cnn3cc(-c4ccc(Cl)cc4)cc3c2=O)ccc1OCC(C)(C)OC(=O)CN`, the concentration in the series on Brain [1] was determined as 4040 nM; in the series on Brain [3], 1570 nM; with Brain [12], 11700 nM; with Plasma [22], 903 nM. The Drug uptake with Brain [2] stood at 4.551 µM. For the same compound, the Drug metabolism is 10 µM in the series on Liver [4], 2.4 µM with Liver [8], 10 µM with Liver [14] and 2.4 µM in the series with Liver [16]. In addition, the “Drug uptake(free)” value is recorded as 16 nM with Brain [5], 47 nM in the series with Brain [7] and 6.3 nM in the series on Brain [17]. Also, the Ratio was 26 in series [6], 3.5 in [11] and 8.9 in [21]. In addition, the Cmax was determined as 1570 nM in the series on Rattus norvegicus [9] and 5 nM in [13]. For the same compound, the BPR with Nucleic Acid is on record as 5. For the same compound, the AUC at 8 h in series [10] was determined as 0.015 µM·h. Further, the inhibition in vivo at 10 mg/kg in the series on Rattus norvegicus [15] was 4.7%. In addition, in the series on Rattus norvegicus [18], the inhibition in vivo at 3 mg/kg amounted to 3.6%. In the series with Plasma [19], the Fu was found to be 0.4%. The inhibition in vivo at 30 mg/kg with Rattus norvegicus [20] stood at 6.9%. The area under the curve (AUC) in the series with Rattus norvegicus [23] stood at 8.2 µM·h.

Values taken from ChEMBL document CHEMBL3616440, “Non-basic azolotriazinone MCHR1 antagonists for the treatment of obesity: An empirical brain-exposures-driven candidate selection for in vivo efficacy studies” (Bioorg Med Chem Lett, 2015).
